For one compound, melting point results are on record in patent US7812165B2, “6-substituted pyridoindolone derivatives, production and therapeutic use thereof” (sanofi-aventis, priority 2004, dated 2010).

With `CCON=Cc1ccc2[nH]c3c(cc(-c4ccc(OC)cc4OC)c(=O)n3C)c2c1` [Compound 7, 3-(2,4-Dimethoxyphenyl)-1-methyl-2-oxo-2,9-dihydro-1H-pyrido[2,3-b]indole-6-carbaldehyde O-ethyloxime], the melting point (as a rule, the temperature, or range, at which the solid turns liquid) is 295 °C.
